The values that follow come from ChEMBL document CHEMBL5329222, “Discovery of novel tubulin CBSI (R)-9k from the indanone scaffold for the treatment of colorectal cancer” (RSC Med Chem, 2023).

Calls of active or inactive are those of the source. The calls are words filed in the database; no cut-off is given here.

One data set has as its system A2780. Kind of data set: Growth inhibition of human A2780 cells incubated for 1.5 hrs by MTT assay. The format is functional, cell-based. Particulars: A2780, 1.5 h. On the technique in general: Tetrazolium assays rely on reduction of a dye to a coloured formazan, in cell work by metabolically active cells.
In another data set the target is Tubulin (Bos taurus) (UniProt Q6B856+Q862L2+Q862F3). Briefly: Inhibition of bovine brain tubulin polymerization at 12 uM measured at 2 to 20 mins by spectrophotometer analysis relative to control. Particulars: time 2-20 min.
Data set [1] deals with HCT-116. Briefly: Induction of cell cycle arrest in human HCT-116 cells assessed as accumulation of cells at G1 phase at 1.5 uM incubated for 24 hrs by flow cytometry analysis (reference value: 68.74%). The format is functional.
The subject of data set [2] is HCT-116. Kind of data set: Induction of cell cycle arrest in human HCT-116 cells assessed as accumulation of cells at G2/M phase at 3 uM incubated for 24 hrs by flow cytometry analysis (reference value: 18.25%). The format is functional. (In general: Flow cytometry measures light scatter and fluorescence of single cells or particles in a stream.)
The subject of data set [3] is HCT-116. Kind of data set: Induction of cell cycle arrest in human HCT-116 cells assessed as accumulation of cells at G2/M phase at 6 uM incubated for 24 hrs by flow cytometry analysis (reference value: 18.25%). The format is functional.
In data set [4] the test system is HCT-116. Kind of data set: Induction of cell cycle arrest in human HCT-116 cells assessed as accumulation of cells at S phase at 1.5 uM incubated for 24 hrs by flow cytometry analysis (reference value: 3.61%). The format is functional.
The subject of data set [5] is HCT-116. Briefly: Induction of cell cycle arrest in human HCT-116 cells assessed as accumulation of cells at S phase at 3 uM incubated for 24 hrs by flow cytometry analysis (reference value: 3.61%). The format is functional.
Data set [6] relates to HCT-116. Kind of data set: Induction of apoptosis in human HCT-116 cells assessed as viable cells at 1.5 uM incubated for 24 hrs by annexin V-FITC/7-AAD staining based flow cytometry analysis (reference value: 90.19%). The format is functional. The note with it: read-out: Activity.
The test system of data set [7] is HCT-116. Kind of data set: Induction of apoptosis in human HCT-116 cells assessed as viable cells at 6 uM incubated for 24 hrs by annexin V-FITC/7-AAD staining based flow cytometry analysis (reference value: 90.19%). The format is functional. The note with it: read-out: Activity.
Data set [8] has as its system HCT-116. Briefly: Induction of apoptosis in human HCT-116 cells assessed as necrotic cells at 1.5 uM incubated for 24 hrs by annexin V-FITC/7-AAD staining based flow cytometry analysis (reference value: 2.46%). The format is functional.
The test system of data set [9] is HCT-116. Briefly: Induction of apoptosis in human HCT-116 cells assessed as necrotic cells at 3 uM incubated for 24 hrs by annexin V-FITC/7-AAD staining based flow cytometry analysis (reference value: 2.46%). The format is functional.
For data set [10], the system named is HCT-116. Briefly: Antiproliferative activity against human HCT-116 cells assessed as inhibition of cell growth at 2 uM incubated for 2 weeks by […]. The format is functional, cell-based.
Data set [11] relates to HCT-116. Kind of data set: Inhibition of colony formation in human HCT-116 cells at 0.5 uM incubated for 48 hrs by crystal violet staining based analysis. The format is functional. The note with it: HCT-116, 48 h, values are per cent of control.
The nature of data set [12]: Cytotoxicity against human HUVEC cells assessed as inhibition of cell growth incubated 1.5 hrs by MTT assay. The format is toxicity, cell-based.
Data set [13] can be described thus: Potency index, ratio of test compound IC50 to 5-fluorouracil IC50 for cytotoxicity against HEK293 cells assessed as inhibition of cell growth incubated 1.5 hrs by MTT assay. The format is toxicity, cell-based. Particulars: human, read-out: Ratio IC50.

As a reminder, the IC50 is the concentration at which inhibition is half-maximal. As usually defined, the inhibition is the drop in the measured response relative to a control, in per cent. A low value points to a weak effect. In the data set with A2780, `CCOc1ccc([C@H]2CC(=O)c3cc(OC)c(OC)c(OC)c32)cc1F` showed an IC50 of 0.59 µM. Also, the inhibition on Tubulin (Bos taurus) came to 66%. For the same molecule, the Activity in the data set on HCT-116 [1] was 65.69%; with HCT-116 [2] it was 28.73%; in the data set on HCT-116 [3], 47.34%; in the data set with HCT-116 [4], 7.57%; in the data set on HCT-116 [5], 6.6%; with HCT-116 [8], 2.28%. In the data set with HCT-116 [9], the Activity was determined as 3.2%. Also, the viability at 1.5 µM in the data set on HCT-116 [6] was found to be 86.7%. Also, the viability at 6 µM with HCT-116 [7] was 60.5%. In addition, the outcome with HCT-116 [10] was Active. In addition, the growth, % of control at 0.5 µM in the data set on HCT-116 [11] was determined as 30.8%. The IC50 at 1.5 h in data set [12] worked out at 15 µM. Also, the selectivity ratio at 1.5 h in [13] stood at 1.39.
